Tested on: zebrafish EECs (Trpa1)
Assay: In vivo EEC calcium, Tg(neurod1:Gcamp6f) zebrafish
Conditions: trpa1b-dependent
Protocol: To record in vivo EEC activity using the Tg(neurod1:Gcamp6f) system, a published protocol with slight modification (Ye et al., 2019) was used. In brief, unanesthetized zebrafish larvae were gently mounted in 3% methylcellulose. Excess water was removed and zebrafish larvae were gently positioned with right side up. Zebrafish were then moved onto an upright Leica M205 FA fluorescence stereomicroscope equipped with a Leica DFC 365FX camera. The zebrafish larvae were allowed to recover for 2 mins before 100 μL of test agent was pipetted directly in front of the mouth region. Images were then recorded every 10 seconds. The data shown in FIG. 2O-R, depicting the EEC responses to E. tarda stimulation, were obtained by mounting unanesthetized zebrafish larvae in 1% low melting agarose. A window (5×5 mm) was cut to expose the head region of the zebrafish. 10 μL of E. tarda culture [˜10^9 Colony Forming Unit (CFU)] were delivered at the zebrafish mouth area. Images were recorded every 10 secs for 20 mins. Image processing and analysis were performed using FIJI software. Time-lapse fluorescence images were first aligned to correct for experimental drift using the plugin “align slices in stack.” Normalized correlation coefficient matching and bilinear interpolation methods for subpixel translation were used for aligning slices (Tseng et al., 2012). The plugin “rolling ball background subtraction” with the rolling ball radius=10 pixels was used to remove the large spatial variation of background intensities. The Gcamp6f fluorescence intensity in the intestinal region was then calculated for each time point. The ratio of maximum fluorescence (Fmax) and the initial fluorescence (F0) was used to measure EEC calcium responses.
For EEC Trpa1 activation using the Optovin platform, zebrafish larvae were treated with 10 μM Optovin overnight. Following Optovin treatment, unanesthetized zebrafish were mounted in 1% LMA and imaged under a 780 upright Zeiss confocal microscope using 20× water objective lenses. For all the experiments, the mid-intestine region was imaged (FIG. 10D). The intestinal epithelium was selected as the region of interest (ROI) (FIG. 10A). Serial images were obtained at 1 s/frame. A 405 nm pulse of light was applied to the ROI at 1 pulse/10 s. For some experiments (FIG. 7D-F, FIG. 10B-G), the images were obtained at 10 s/frame. When measuring Optovin effects on intestinal motility in ret−/−, sox10−/− or tph1b−/− zebrafish larvae, embryos were collected from heterozygous zebrafish. ret−/− zebrafish were identified by lack of ENS and deflated swim bladder (Knight et al., 2011), sox10−/− zebrafish were identified by lack of pigment (Rolig et al., 2017), and tph1b−/− zebrafish were identified by PCR-based genotyping (Tornini et al., 2017).
To determine whether Optovin-UV or ChR2 was sufficient to activate EECs, Tg(neurod1:Gcamp6f) zebrafish were used. […] The Gcamp6f signal was recorded with 488 nm laser intensity less than 0.5. The zebrafish intestinal motility is quantified through recorded image series of zebrafish intestine using the method similar as previously described (Ganz et al., 2018). […] When calculating the mean velocity, only the mean velocity magnitude was calculated, which therefore doesn't account for the movement direction. The MTrackJ FIJI plugin was used to quantify the mean velocity magnitude (Meijering et al., 2012).

## c1ccc2[nH]ccc2c1 [Indole]
  Zebrafish EEC activation (Gcamp6f fluorescence): strongly activated

Source: US20230149355A1, “COMPOSITIONS AND METHODS FOR MODULATING TRP CHANNEL ACTIVITY” (priority 2020, published 2023)
